Experimental findings from ChEMBL document CHEMBL1147300, “Plant antiviral agents, VI. Isolation of antiviral phenolic glucosides from Populus cultivar Beaupre by droplet counter-current chromatography” (1989) are described below.

Calls of active or inactive are those of the source. The calls are words filed in the database; no cut-off is given here.

Assay [1] concerns Coxsackievirus. Description: Antiviral activity against Coxsackievirus infected in african green monkey Vero cells assessed as ratio of viral titer in absence to presence of compound at 500 ug/ml by 50% endpoint titration technique. Format: functional, organism-based.
For the next assay, the system named is Human alphaherpesvirus 1. The assay can be described thus: Antiviral activity against Herpes simplex virus type 1 infected in african green monkey Vero cells assessed as ratio of viral titer in absence to presence of compound at 500 ug/ml by 50% endpoint titration technique. Type of assay: functional, organism-based.
A further assay deals with Measles morbillivirus. The assay can be described thus: Antiviral activity against Measles virus infected in african green monkey Vero cells assessed as ratio of viral titer in absence to presence of compound at 500 ug/ml by 50% endpoint titration technique. Type of assay: functional, organism-based.
Assay [2] has as its system Semliki Forest virus. The assay can be described thus: Antiviral activity against Semliki forest virus infected in african green monkey Vero cells assessed as ratio of viral titer in absence to presence of compound at 500 ug/ml by 50% endpoint titration technique. Format: functional, organism-based.
Assay [3] deals with Enterovirus C. The assay can be described thus: Antiviral activity against Poliovirus infected in african green monkey Vero cells assessed as ratio of viral titer in absence to presence of compound at 25 ug/ml by 50% endpoint titration technique. Format: functional.
The next assay relates to Microsporum canis. The assay can be described thus: Antifungal activity against Microsporum canis at 500 ug/ml. Format: functional, organism-based.
Assay [4] deals with Trichophyton mentagrophytes. Description: Antifungal activity against Trichophyton mentagrophytes at 500 ug/ml. Format: functional, organism-based.
Another assay deals with Trichophyton rubrum. The assay can be described thus: Antifungal activity against Trichophyton rubrum at 500 ug/ml. Format: functional, organism-based.
In another assay the test system is Aspergillus niger. The assay can be described thus: Antifungal activity against Aspergillus niger at 500 ug/ml. Type of assay: functional, organism-based.
The subject of assay [5] is Coxsackievirus. The assay can be described thus: Antiviral activity against Coxsackievirus infected in african green monkey Vero cells assessed as ratio of viral titer in absence to presence of compound at 5 ug/ml by 50% endpoint titration technique. Format: functional.
Assay [6] deals with Enterovirus C. Description: Antiviral activity against Poliovirus infected in african green monkey Vero cells assessed as ratio of viral titer in absence to presence of compound at 5 ug/ml by 50% endpoint titration technique. Format: functional.
Assay [7] concerns Semliki Forest virus. Description: Antiviral activity against Semliki forest virus infected in african green monkey Vero cells assessed as ratio of viral titer in absence to presence of compound at 50 ug/ml by 50% endpoint titration technique. Format: functional.

With `OCc1ccccc1O[C@@H]1O[C@H](CO)[C@@H](O)[C@H](O)[C@H]1O` [SALICIN], the outcome (in the assay on Coxsackievirus [1]; in the assay on Human alphaherpesvirus 1; in the assay with Measles morbillivirus; in the assay with Semliki Forest virus [2]; with Microsporum canis; in assay [4]) was inactive. Further, the result with Trichophyton rubrum and in the assay on Aspergillus niger was inactive. The Ratio in the assay with Enterovirus C [3] was 1000.

For `COc1c(-c2ccc(O)c(O)c2)oc2cc(O)cc(O)c2c1=O` [3-O-METHYLQUERCETIN], the results for the Ratio in the assay on Coxsackievirus [5] and with Enterovirus C [6] were 10000000 and 100000000, respectively. In addition, the outcome in the assay with Human alphaherpesvirus 1, with Measles morbillivirus and in the assay with Semliki Forest virus [2] was inactive.

On to `O=C(OCc1cc(O)ccc1O[C@@H]1O[C@H](CO)[C@@H](O)[C@H](O)[C@H]1O)c1ccccc1` [SALIREPOSIDE], for which the outcome (with Coxsackievirus [1]; with Human alphaherpesvirus 1; with Measles morbillivirus; in the assay on Microsporum canis; in [4]; in the assay on Trichophyton rubrum) was inactive. The result with Aspergillus niger was inactive. In addition, the Ratio with Semliki Forest virus [7] and in the assay with Enterovirus C [3] was 10000 each time.
